# According to ChEMBL document CHEMBL3885881, “DrugMatrix”:
# Assays:
# [1] = species: Rattus norvegicus; test: DrugMatrix - Regimen: Daily Repeat; assay type: toxicity, organism-based, Sprague-Dawley; parameters: regimen Daily Repeat, gender Male, age 6-8 weeks; details: in vivo, po, 2 mg/kg, route oral GAVAGE, dose level High, vehicle 100 % WATER
# [2] = species: Rattus norvegicus; assay type: toxicity, organism-based, Sprague-Dawley; details: in vivo, po, 2 mg/kg, 24 h, route oral GAVAGE, dose level High, time 1 day, vehicle 100 % WATER
# Description: DrugMatrix - Regimen: Single
# [3] = […], tissue Plasma, time 14 day
compound,measurement,setting,value
O=[Se]([O-])[O-].[Na+].[Na+] [SODIUM SELENITE],URIC ACID,"[1]; 120 h, tissue Plasma, time 5 day",0.67 mg/dL
same,ABSOLUTE BASOPHIL,"[1]; […], tissue Blood, time 14 day",0 CELLS/uL
same,ABSOLUTE EOSINOPHIL,"[1]; […], tissue Blood, time 14 day",217 CELLS/uL
same,ABSOLUTE LYMPHOCYTE,"[1]; […], tissue Blood, time 14 day",17297 CELLS/uL
same,ABSOLUTE MONOCYTE,"[1]; […], tissue Blood, time 14 day",361.6 CELLS/uL
same,ABSOLUTE SEGMENTED NEUTROPHIL,"[1]; […], tissue Blood, time 14 day",2204.4 CELLS/uL
same,BASOPHIL,"[1]; […], tissue Blood, time 14 day",0%
same,EOSINOPHIL,"[1]; […], tissue Blood, time 14 day",1.2%
same,ERYTHROCYTE COUNT,"[1]; […], tissue Blood, time 14 day",6.02 x10E6/uL
same,HEMATOCRIT,"[1]; […], tissue Blood, time 14 day",35.24%
same,HEMOGLOBIN,"[1]; […], tissue Blood, time 14 day",13.22 G/DL
same,LEUKOCYTE COUNT,"[1]; […], tissue Blood, time 14 day",20.08 x10E3/uL
same,LYMPHOCYTE,"[1]; […], tissue Blood, time 14 day",85.8%
same,MEAN CORPUSCULAR HEMOGLOBIN,"[1]; […], tissue Blood, time 14 day",21.98 pg
same,MEAN CORPUSCULAR HEMOGLOBIN CONCENTRATION,"[1]; […], tissue Blood, time 14 day",37.54 G/DL
same,MEAN CORPUSCULAR VOLUME,"[1]; […], tissue Blood, time 14 day",58.52 fL
same,MONOCYTE,"[1]; […], tissue Blood, time 14 day",1.8%
same,NEUTROPHIL,"[1]; […], tissue Blood, time 14 day",11.2%
same,NUCLEATED RED BLOOD CELLS,"[1]; […], tissue Blood, time 14 day",0 /100WBC
same,PLATELET COUNT,"[1]; […], tissue Blood, time 14 day",1010.8 x10E3/uL
same,ALANINE AMINOTRANSFERASE,[1]; [3],60.2 u/L
same,ALBUMIN,[1]; [3],4.26 G/DL
same,ALKALINE PHOSPHATASE,[1]; [3],330.2 u/L
same,ASPARTATE AMINOTRANSFERASE,[1]; [3],119.4 u/L
same,BLOOD UREA NITROGEN,[1]; [3],14 mg/dL
same,CARBON DIOXIDE,[1]; [3],22.8 mmol/L
same,CHLORIDE,[1]; [3],104.2 MEQ/L
same,CHOLESTEROL,[1]; [3],62.8 mg/dL
same,CREATININE,[1]; [3],0.21 mg/dL
same,GLUCOSE,[1]; [3],199.6 mg/dL
same,LACTATE DEHYDROGENASE,[1]; [3],281.2 u/L
same,LIPASE,[1]; [3],8 u/L
same,PHOSPHORUS,[1]; [3],13.28 mg/dL
same,POTASSIUM,[1]; [3],5.95 MEQ/L
same,SODIUM,[1]; [3],148.62 MEQ/L
same,TOTAL BILIRUBIN,[1]; [3],0.16 mg/dL
same,TOTAL PROTEIN,[1]; [3],6.16 G/DL
same,URIC ACID,[1]; [3],2.08 mg/dL
same,ABSOLUTE EOSINOPHIL,[2]; tissue Blood,75.33 CELLS/uL
same,ABSOLUTE LYMPHOCYTE,[2]; tissue Blood,14511 CELLS/uL
same,ABSOLUTE MONOCYTE,[2]; tissue Blood,680 CELLS/uL
same,ABSOLUTE SEGMENTED NEUTROPHIL,[2]; tissue Blood,1733.67 CELLS/uL
same,BASOPHIL,[2]; tissue Blood,0%
same,EOSINOPHIL,[2]; tissue Blood,0.67%
same,ERYTHROCYTE COUNT,[2]; tissue Blood,5.44 x10E6/uL
same,HEMATOCRIT,[2]; tissue Blood,34.57%
same,HEMOGLOBIN,[2]; tissue Blood,12.77 G/DL
same,LEUKOCYTE COUNT,[2]; tissue Blood,17 x10E3/uL
same,LYMPHOCYTE,[2]; tissue Blood,85%
same,MEAN CORPUSCULAR HEMOGLOBIN,[2]; tissue Blood,23.53 pg
same,MEAN CORPUSCULAR HEMOGLOBIN CONCENTRATION,[2]; tissue Blood,36.97 G/DL
same,MEAN CORPUSCULAR VOLUME,[2]; tissue Blood,63.6 fL
same,MONOCYTE,[2]; tissue Blood,4%
same,NEUTROPHIL,[2]; tissue Blood,10.33%
same,NUCLEATED RED BLOOD CELLS,[2]; tissue Blood,0 /100WBC
same,PLATELET COUNT,[2]; tissue Blood,978.67 x10E3/uL
same,ALANINE AMINOTRANSFERASE,[2]; tissue Plasma,57.67 u/L
same,ALBUMIN,[2]; tissue Plasma,4.3 G/DL
same,ALKALINE PHOSPHATASE,[2]; tissue Plasma,357.67 u/L
same,ASPARTATE AMINOTRANSFERASE,[2]; tissue Plasma,80.67 u/L
same,BLOOD UREA NITROGEN,[2]; tissue Plasma,12.33 mg/dL
same,CARBON DIOXIDE,[2]; tissue Plasma,27.67 mmol/L
same,CHLORIDE,[2]; tissue Plasma,103 MEQ/L
same,CHOLESTEROL,[2]; tissue Plasma,82.67 mg/dL
same,CREATININE,[2]; tissue Plasma,0.15 mg/dL
same,GLUCOSE,[2]; tissue Plasma,177 mg/dL
same,LACTATE DEHYDROGENASE,[2]; tissue Plasma,119 u/L
same,LIPASE,[2]; tissue Plasma,7.67 u/L
same,PHOSPHORUS,[2]; tissue Plasma,13.23 mg/dL
same,POTASSIUM,[2]; tissue Plasma,6.75 MEQ/L
same,SODIUM,[2]; tissue Plasma,146.8 MEQ/L
same,TOTAL BILIRUBIN,[2]; tissue Plasma,0.2 mg/dL
same,TOTAL PROTEIN,[2]; tissue Plasma,5.73 G/DL
same,URIC ACID,[2]; tissue Plasma,2.07 mg/dL
